Tested on: Smh1
Assay type: biochemical, Legionella pneumophila
Settings: 50 µM TSA, 30 min preincubation; enzyme 156.25 ng/ml; inhibitor

CC(/C=C/C(=O)NO)=C\[C@@H](C)C(=O)c1ccc(N(C)C)cc1 [Trichostatin A]
HDAC-Glo I/II luminescence assay: TSA significantly reduced Smh1 HDAC activity in comparison to Smh1 alone

From article PMC9704406 (Virulence, 2022)
